Assay results reported in patent US10231954B2, “Neurodegenerative therapies” (LYTIX BIOPHARMA AS, priority 2014, dated 2019).
Where two headings read alike, the source gives them in different places.

Key:
Assay type in all cases: biochemical
TESK1 = TESK1 (Homo sapiens, UniProt Q15569); assay: Kinase profiling TESK1; conditions: for remaining activity at 100 µM: read-out: residual kinase activity, TESK1
Description: (§1) Any value less that 25 is considered to be highly significant inhibition.

PAK6 = PAK6 (Homo sapiens, UniProt Q9NQU5); assay: Kinase profiling PAK6; conditions: for remaining activity at 100 µM: read-out: residual kinase activity, PAK6
Description: as §1

MPSK1 = MPSK1 (Homo sapiens, UniProt O75716); assay: Kinase profiling MPSK1; conditions: for remaining activity at 100 µM: read-out: residual kinase activity, MPSK1
Description: as §1

IRR = IRR (Homo sapiens, UniProt P14616); assay: Kinase profiling IRR; conditions: for remaining activity at 100 µM: read-out: residual kinase activity, IRR
Description: as §1

MINK1 = MINK1 (Homo sapiens, UniProt Q8N4C8); assay: Kinase profiling MINK1; conditions: for remaining activity at 100 µM: read-out: residual kinase activity, MINK1
Description: as §1

IKKe = target: T1, IKKe (Homo sapiens, UniProt Q14164); assay: Kinase profiling IKKe; conditions: for remaining activity at 100 µM: read-out: residual kinase activity, IKKe
T1 sequence (Q14164 1-716): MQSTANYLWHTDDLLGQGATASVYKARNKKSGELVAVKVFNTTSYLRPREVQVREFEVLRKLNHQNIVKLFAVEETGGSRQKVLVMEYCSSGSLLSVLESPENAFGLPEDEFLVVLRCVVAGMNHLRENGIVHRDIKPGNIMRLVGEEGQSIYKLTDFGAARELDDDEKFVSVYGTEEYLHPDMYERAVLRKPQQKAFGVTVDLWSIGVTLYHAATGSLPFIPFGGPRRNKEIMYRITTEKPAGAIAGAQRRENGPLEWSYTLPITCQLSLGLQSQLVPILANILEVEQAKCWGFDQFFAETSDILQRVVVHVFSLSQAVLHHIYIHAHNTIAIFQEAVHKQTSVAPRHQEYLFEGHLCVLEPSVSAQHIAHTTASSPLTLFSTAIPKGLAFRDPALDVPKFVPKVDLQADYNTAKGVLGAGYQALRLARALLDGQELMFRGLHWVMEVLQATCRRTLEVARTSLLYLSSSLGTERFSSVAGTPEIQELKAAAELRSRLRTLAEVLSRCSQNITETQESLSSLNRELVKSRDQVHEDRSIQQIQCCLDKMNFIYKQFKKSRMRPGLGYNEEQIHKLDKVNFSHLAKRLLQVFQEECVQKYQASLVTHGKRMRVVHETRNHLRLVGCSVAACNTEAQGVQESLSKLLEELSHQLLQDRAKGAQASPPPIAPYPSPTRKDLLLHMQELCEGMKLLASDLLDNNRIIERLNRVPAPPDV
Description: as §1

OSR1 = OSR1 (Homo sapiens, UniProt O95747); assay: Kinase profiling OSR1; conditions: for remaining activity at 100 µM: read-out: residual kinase activity, OSR1
Description: as §1

FGF-R1 = FGF-R1 (Homo sapiens, UniProt P11362); assay: Kinase profiling FGF-R1; conditions: for remaining activity at 100 µM: read-out: residual kinase activity, FGF-R1
Description: as §1

CDK9-Cyclin T1 = CDK9-Cyclin T1 (Homo sapiens, UniProt P50750); assay: Kinase profiling CDK9-Cyclin T1; conditions: for remaining activity at 100 µM: read-out: residual kinase activity, CDK9-Cyclin T1
Description: as §1

AMPK = assay: Kinase profiling AMPK; conditions: 100 micromolar inhibitor concentration; 100 is no change
Description: as §1

BRK = BRK (Homo sapiens, UniProt Q13882); assay: Kinase profiling BRK; conditions: for remaining activity at 100 µM: read-out: residual kinase activity, BRK
Description: as §1

HIPK1 = HIPK1 (Homo sapiens, UniProt Q86Z02); assay: Kinase profiling HIPK1; conditions: for remaining activity at 100 µM: read-out: residual kinase activity, HIPK1
Description: as §1

SIK2 = SIK2 (Homo sapiens, UniProt Q9H0K1); assay: Kinase profiling SIK2; conditions: for remaining activity at 100 µM: read-out: residual kinase activity, SIK2
Description: as §1

PAK2 = PAK2 (Homo sapiens, UniProt Q13177); assay: Kinase profiling PAK2; conditions: for remaining activity at 100 µM: read-out: residual kinase activity, PAK2
Description: as §1

MAP4K3 = target: T2, MAP4K3 (Homo sapiens, UniProt Q8IVH8); assay: Kinase profiling MAP4K3; conditions: 100 micromolar inhibitor concentration, 100 is no change; for remaining activity at 100 µM: read-out: residual kinase activity, MAP4K3
T2 sequence (Q8IVH8 1-894): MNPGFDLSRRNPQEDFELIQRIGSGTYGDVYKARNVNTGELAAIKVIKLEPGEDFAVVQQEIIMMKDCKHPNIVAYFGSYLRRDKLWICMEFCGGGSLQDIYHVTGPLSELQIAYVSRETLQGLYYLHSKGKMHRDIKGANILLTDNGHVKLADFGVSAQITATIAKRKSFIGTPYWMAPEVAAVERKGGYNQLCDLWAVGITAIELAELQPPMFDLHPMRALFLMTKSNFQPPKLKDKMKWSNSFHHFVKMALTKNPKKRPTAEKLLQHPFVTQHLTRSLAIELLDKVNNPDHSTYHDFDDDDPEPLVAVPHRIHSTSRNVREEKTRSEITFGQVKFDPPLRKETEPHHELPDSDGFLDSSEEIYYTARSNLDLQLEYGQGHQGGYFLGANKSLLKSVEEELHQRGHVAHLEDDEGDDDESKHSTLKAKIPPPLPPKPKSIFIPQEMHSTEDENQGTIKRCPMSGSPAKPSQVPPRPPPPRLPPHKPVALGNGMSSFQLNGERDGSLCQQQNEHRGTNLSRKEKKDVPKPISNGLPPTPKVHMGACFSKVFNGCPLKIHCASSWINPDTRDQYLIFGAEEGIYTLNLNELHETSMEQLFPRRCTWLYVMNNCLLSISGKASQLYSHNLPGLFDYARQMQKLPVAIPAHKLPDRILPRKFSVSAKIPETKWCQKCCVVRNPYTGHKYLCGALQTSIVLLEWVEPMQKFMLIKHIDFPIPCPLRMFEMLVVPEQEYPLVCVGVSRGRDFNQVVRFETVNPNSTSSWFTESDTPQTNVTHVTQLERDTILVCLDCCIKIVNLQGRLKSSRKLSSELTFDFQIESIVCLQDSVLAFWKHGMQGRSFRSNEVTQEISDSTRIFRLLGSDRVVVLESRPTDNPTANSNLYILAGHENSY
Description: as §1

MNK2 = MNK2 (Homo sapiens, UniProt Q9HBH9); assay: Kinase profiling MNK2; conditions: for remaining activity at 100 µM: read-out: residual kinase activity, MNK2
Description: as §1

[1] = 100 micromolar inhibitor concentration, 100 is no change

Chain of PAK6 (Q9NQU5 whole entry, species assumed): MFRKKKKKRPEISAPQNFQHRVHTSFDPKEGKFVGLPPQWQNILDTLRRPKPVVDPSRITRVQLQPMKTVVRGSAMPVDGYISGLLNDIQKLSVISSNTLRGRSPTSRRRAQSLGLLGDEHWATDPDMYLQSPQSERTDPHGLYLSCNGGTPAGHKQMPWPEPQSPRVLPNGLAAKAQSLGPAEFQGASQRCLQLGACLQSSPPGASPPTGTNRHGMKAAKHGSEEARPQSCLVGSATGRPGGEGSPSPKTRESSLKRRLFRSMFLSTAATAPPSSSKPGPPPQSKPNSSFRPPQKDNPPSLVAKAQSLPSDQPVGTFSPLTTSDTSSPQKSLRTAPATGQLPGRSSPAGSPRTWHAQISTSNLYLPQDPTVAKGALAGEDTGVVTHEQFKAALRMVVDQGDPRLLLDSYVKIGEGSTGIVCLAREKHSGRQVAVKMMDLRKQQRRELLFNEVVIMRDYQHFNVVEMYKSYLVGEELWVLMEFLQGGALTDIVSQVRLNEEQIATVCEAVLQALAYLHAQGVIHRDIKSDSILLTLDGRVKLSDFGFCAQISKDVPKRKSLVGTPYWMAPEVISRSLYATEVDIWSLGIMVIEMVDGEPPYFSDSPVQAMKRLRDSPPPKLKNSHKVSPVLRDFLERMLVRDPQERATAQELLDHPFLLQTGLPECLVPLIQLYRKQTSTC
Chain of MINK1 (Q8N4C8 whole entry, species assumed): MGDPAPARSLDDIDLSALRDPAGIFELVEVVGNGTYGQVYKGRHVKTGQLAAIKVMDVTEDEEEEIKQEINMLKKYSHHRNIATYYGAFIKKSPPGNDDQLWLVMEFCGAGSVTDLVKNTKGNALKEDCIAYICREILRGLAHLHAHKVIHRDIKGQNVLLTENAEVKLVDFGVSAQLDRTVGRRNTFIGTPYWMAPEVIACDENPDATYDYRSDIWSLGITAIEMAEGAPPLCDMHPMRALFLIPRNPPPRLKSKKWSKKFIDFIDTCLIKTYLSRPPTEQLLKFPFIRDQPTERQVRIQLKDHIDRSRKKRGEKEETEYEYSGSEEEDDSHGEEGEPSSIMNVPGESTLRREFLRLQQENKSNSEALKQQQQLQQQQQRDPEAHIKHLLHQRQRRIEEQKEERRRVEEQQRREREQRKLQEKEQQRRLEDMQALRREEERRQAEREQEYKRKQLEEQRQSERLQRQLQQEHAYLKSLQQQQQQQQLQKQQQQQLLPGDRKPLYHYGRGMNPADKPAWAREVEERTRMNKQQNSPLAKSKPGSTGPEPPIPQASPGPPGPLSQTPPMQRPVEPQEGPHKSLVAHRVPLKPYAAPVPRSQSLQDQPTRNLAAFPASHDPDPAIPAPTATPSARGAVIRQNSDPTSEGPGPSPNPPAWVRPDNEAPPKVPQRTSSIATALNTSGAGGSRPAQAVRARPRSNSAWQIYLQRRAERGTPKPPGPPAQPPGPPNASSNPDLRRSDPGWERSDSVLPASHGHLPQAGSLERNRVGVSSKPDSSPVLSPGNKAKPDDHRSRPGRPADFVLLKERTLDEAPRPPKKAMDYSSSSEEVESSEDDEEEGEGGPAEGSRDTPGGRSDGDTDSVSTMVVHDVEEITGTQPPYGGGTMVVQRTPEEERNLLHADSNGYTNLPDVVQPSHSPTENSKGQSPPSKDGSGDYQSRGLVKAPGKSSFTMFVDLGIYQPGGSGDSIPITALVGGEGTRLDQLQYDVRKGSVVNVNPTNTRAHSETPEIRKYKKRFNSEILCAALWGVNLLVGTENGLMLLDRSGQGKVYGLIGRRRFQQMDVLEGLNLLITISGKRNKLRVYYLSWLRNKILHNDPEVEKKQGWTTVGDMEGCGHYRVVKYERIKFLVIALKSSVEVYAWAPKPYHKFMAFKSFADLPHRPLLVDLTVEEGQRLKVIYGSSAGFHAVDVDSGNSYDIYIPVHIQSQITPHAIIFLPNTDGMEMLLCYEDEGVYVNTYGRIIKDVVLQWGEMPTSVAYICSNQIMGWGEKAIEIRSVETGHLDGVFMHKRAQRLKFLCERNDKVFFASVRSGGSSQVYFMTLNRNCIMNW
Chain of HIPK1 (Q86Z02 whole entry, species assumed): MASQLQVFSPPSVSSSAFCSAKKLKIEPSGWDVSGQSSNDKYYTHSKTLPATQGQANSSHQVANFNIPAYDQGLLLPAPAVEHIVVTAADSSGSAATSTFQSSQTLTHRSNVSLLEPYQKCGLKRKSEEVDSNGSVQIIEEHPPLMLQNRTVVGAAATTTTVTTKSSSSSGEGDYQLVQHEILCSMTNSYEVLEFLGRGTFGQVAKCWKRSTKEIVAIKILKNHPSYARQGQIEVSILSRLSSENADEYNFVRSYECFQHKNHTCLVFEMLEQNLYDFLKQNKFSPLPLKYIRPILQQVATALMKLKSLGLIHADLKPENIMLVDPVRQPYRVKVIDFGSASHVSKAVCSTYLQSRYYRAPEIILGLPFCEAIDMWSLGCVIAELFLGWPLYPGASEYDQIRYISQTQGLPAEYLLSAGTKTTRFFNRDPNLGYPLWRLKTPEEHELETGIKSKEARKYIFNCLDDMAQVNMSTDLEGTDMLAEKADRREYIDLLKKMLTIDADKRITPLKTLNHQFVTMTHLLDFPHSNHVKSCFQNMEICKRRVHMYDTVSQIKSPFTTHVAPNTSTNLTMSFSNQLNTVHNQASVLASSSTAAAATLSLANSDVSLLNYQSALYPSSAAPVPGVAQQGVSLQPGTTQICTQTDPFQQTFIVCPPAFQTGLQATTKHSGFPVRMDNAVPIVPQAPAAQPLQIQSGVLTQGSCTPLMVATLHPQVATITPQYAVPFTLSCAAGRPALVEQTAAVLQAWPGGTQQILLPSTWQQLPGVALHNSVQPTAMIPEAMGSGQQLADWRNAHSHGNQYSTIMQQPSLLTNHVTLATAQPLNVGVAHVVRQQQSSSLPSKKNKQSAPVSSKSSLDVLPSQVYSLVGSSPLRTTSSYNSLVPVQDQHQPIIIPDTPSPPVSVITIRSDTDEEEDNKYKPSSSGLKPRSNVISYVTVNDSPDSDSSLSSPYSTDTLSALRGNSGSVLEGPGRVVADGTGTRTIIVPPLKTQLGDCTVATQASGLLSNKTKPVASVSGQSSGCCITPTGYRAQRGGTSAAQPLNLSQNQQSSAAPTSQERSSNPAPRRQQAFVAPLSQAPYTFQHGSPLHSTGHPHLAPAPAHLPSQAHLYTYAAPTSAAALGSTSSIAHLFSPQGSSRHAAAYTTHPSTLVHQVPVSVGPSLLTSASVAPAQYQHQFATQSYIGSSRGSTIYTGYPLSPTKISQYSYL
Chain of FGF-R1 (P11362 22-822, species assumed): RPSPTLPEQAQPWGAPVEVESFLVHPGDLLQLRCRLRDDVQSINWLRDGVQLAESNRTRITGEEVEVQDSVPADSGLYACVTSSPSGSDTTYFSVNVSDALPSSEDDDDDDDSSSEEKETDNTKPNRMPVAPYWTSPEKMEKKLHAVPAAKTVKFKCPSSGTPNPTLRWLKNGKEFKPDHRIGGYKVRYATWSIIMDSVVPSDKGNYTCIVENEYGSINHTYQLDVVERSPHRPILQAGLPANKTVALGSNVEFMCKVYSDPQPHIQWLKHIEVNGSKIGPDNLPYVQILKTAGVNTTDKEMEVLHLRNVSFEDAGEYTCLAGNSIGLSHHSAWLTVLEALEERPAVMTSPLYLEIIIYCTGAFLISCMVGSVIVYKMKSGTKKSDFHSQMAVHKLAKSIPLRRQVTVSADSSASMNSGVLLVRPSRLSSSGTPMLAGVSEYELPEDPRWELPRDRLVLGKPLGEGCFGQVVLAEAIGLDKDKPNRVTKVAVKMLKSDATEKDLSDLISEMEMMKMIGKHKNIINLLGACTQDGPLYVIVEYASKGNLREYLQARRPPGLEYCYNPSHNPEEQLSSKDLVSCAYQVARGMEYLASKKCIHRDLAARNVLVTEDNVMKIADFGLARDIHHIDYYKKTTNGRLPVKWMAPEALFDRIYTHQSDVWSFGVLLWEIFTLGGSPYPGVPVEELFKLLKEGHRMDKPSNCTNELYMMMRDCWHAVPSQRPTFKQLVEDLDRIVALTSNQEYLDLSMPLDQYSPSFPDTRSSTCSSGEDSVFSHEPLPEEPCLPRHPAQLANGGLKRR
Chain of MNK2 (Q9HBH9 whole entry, species assumed): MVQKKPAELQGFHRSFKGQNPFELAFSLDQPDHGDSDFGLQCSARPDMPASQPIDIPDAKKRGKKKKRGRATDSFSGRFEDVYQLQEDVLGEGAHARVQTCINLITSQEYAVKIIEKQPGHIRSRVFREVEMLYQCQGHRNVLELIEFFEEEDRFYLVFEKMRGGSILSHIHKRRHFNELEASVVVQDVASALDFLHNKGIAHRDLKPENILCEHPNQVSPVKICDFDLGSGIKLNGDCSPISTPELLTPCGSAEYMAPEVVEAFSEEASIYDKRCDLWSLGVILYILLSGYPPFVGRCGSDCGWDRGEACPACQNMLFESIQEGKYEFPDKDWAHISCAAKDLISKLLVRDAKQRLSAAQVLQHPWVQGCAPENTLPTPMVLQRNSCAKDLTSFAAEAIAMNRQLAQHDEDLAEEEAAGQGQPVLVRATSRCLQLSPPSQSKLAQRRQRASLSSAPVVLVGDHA
Chain of OSR1 (O95747 whole entry): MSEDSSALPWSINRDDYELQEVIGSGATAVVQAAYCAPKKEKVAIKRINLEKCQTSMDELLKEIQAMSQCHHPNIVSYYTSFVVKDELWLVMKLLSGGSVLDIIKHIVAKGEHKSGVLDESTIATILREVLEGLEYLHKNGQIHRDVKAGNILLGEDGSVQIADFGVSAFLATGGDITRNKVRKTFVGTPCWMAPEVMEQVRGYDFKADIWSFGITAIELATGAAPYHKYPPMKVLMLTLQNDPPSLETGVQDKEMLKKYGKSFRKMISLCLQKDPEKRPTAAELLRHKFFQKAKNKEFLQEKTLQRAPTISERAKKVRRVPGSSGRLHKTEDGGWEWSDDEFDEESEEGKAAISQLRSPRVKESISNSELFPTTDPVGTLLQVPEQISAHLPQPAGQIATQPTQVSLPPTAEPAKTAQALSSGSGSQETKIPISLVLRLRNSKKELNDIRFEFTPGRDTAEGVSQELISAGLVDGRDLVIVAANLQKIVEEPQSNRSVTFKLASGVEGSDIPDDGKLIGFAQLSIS

SMILES | residual kinase activity, TESK1 (TESK1; [1]) | residual kinase activity, PAK6 (PAK6; [1]) | residual kinase activity, MPSK1 (MPSK1; [1]) | residual kinase activity, IRR (IRR; [1]) | residual kinase activity, MINK1 (MINK1; [1]) | residual kinase activity, AMPK (AMPK) | remaining activity at 100 µM (TESK1; [1]) [%] | remaining activity at 100 µM (PAK6; [1]) [%] | remaining activity at 100 µM (MPSK1; [1]) [%] | remaining activity at 100 µM (IRR; [1]) [%] | remaining activity at 100 µM (MINK1; [1]) [%] | remaining activity at 100 µM (IKKe; [1]) [%] | remaining activity at 100 µM (OSR1; [1]) [%] | remaining activity at 100 µM (FGF-R1; [1]) [%] | remaining activity at 100 µM (CDK9-Cyclin T1; [1]) [%] | remaining activity at 100 µM (BRK; [1]) [%] | remaining activity at 100 µM (HIPK1; [1]) [%] | remaining activity at 100 µM (SIK2; [1]) [%] | remaining activity at 100 µM (PAK2; [1]) [%] | remaining activity at 100 µM (MNK2; [1]) [%] | other results
O=C(Nc1nc2cc(O)ccc2s1)c1ccncc1 [Compound 03-11] | 88 | 90 | 73 | 86 | 63 | 84 |  |  |  |  |  |  |  |  |  |  |  |  |  |  | residual kinase activity, IKKe (IKKe; [1]): 69; residual kinase activity, OSR1 (OSR1; [1]): 90; residual kinase activity, FGF-R1 (FGF-R1; [1]): 74; residual kinase activity, CDK9-Cyclin T1 (CDK9-Cyclin T1; [1]): 68; residual kinase activity, BRK (BRK; [1]): 93; residual kinase activity, HIPK1 (HIPK1; [1]): 75; residual kinase activity, SIK2 (SIK2; [1]): 79; residual kinase activity, PAK2 (PAK2; [1]): 88; residual kinase activity, MAP4K3 (MAP4K3): 73; residual kinase activity, MNK2 (MNK2; [1]): 75
CC(=O)Nc1nc2cc(C)ccc2s1 [Compound 03-76] | 106 | 108 | 91 | 66 | 63 | 77 |  |  |  |  |  |  |  |  |  |  |  |  |  |  | residual kinase activity, IKKe (IKKe; [1]): 89; residual kinase activity, OSR1 (OSR1; [1]): 116; residual kinase activity, FGF-R1 (FGF-R1; [1]): 106; residual kinase activity, CDK9-Cyclin T1 (CDK9-Cyclin T1; [1]): 49; residual kinase activity, BRK (BRK; [1]): 80; residual kinase activity, HIPK1 (HIPK1; [1]): 53; residual kinase activity, SIK2 (SIK2; [1]): 71; residual kinase activity, PAK2 (PAK2; [1]): 102; residual kinase activity, MAP4K3 (MAP4K3): 80; residual kinase activity, MNK2 (MNK2; [1]): 81
CC(=O)Nc1nc2cc(O)ccc2s1 [Compound 01-66, N-(5-hydroxybenzo[d]thiazol-2-yl)acetamide] |  |  |  |  |  | 61 |  |  |  |  |  |  |  |  |  |  |  |  |  |  | remaining activity at 100 µM (TESK1): 94%; remaining activity at 100 µM (PAK6): 90%; remaining activity at 100 µM (MPSK1): 80%; remaining activity at 100 µM (IRR): 30%; remaining activity at 100 µM (MINK1): 48%; remaining activity at 100 µM (IKKe): 68%; remaining activity at 100 µM (OSR1): 95%; remaining activity at 100 µM (FGF-R1): 67%; remaining activity at 100 µM (CDK9-Cyclin T1): 85%; remaining activity at 100 µM (BRK): 77%; remaining activity at 100 µM (HIPK1): 97%; remaining activity at 100 µM (SIK2): 56%; remaining activity at 100 µM (PAK2): 93%; remaining activity at 100 µM (MNK2): 33%
CC(=O)Nc1nc2ccc(C(F)(F)F)cc2s1 [Compound 01-90] |  |  |  |  |  | 90 | 93 | 106 | 105 | 49 | 35 | 81 | 75 | 40 | 26 | 99 | 48 | 72 | 103 | 71 | remaining activity at 100 µM (MAP4K3): 65%
CC(=O)Nc1nc2ccc(O)cc2s1 [Compound 01-71] |  |  |  |  |  | 37 | 61 | 81 | 77 | 34 | 28 | 58 | 78 | 42 | 48 | 22 | 76 | 32 | 102 | 34 | 
O=C(Nc1nc2ccc(O)cc2s1)c1ccccc1 [Compound 03-60] | 65 | 104 | 106 | 31 | 7 | 30 |  |  |  |  |  |  |  |  |  |  |  |  |  |  | residual kinase activity, IKKe (IKKe; [1]): 27; residual kinase activity, OSR1 (OSR1; [1]): 82; residual kinase activity, FGF-R1 (FGF-R1; [1]): 84; residual kinase activity, CDK9-Cyclin T1 (CDK9-Cyclin T1; [1]): 76; residual kinase activity, BRK (BRK; [1]): 14; residual kinase activity, HIPK1 (HIPK1; [1]): 9; residual kinase activity, SIK2 (SIK2; [1]): 26; residual kinase activity, PAK2 (PAK2; [1]): 94; residual kinase activity, MAP4K3 (MAP4K3): 56; residual kinase activity, MNK2 (MNK2; [1]): 25
CC(=O)Nc1nc2ccc(C#N)cc2s1 [Compound 01-94] |  |  |  |  |  | 73 | 90 | 92 | 94 | 42 | 40 | 64 | 79 | 51 | 15 | 100 | 37 | 70 | 101 | 50 | remaining activity at 100 µM (MAP4K3): 52%
COc1ccc2sc(NC(C)=O)nc2c1 [Compound 03-21] |  |  |  |  |  | 100 | 104 | 108 | 97 | 47 | 61 | 91 | 119 | 104 | 90 | 62 | 39 | 89 | 95 | 84 | remaining activity at 100 µM (MAP4K3): 75%
